In patent US6229029A, “11β-aryl substituted 14,17-ethanoestratriens, method for the production of these compounds and their use in the production of medicaments” (Schering Aktiengesellschaft, priority 1997, dated 2001):

Columns and labels:
[1] = tested on: bone (distal femur / proximal tibia) of ovariectomized rats; test: Bone studies in ovariectomized rats: bone density by pQCT; assay type: in vivo, rat; conditions: for % of Action of E2 (bone density femur) / Bone Density Femur: Table 4, distal femur; for % of Action of E2 (bone density femur) / Bone Density Femur / Bone Density / % of Action of E2 (bone density): 28 days; for Bone Density / % of Action of E2 (bone density): Table 5, proximal tibia
bone / uterus of rats = test: Dissociation of bone action/uterus action (FIG. 7); assay type: in vivo, rat; conditions: bone action vs uterus epithelial height, relative to 17β-estradiol
Source text: There, for compounds A, B and V, their bone-protecting actions are compared to the action of estrogen on the uterus (parameter: uterus epithelial height) as a function of dosage, in each case relative to the action of 17β-estradiol.

## C[C@]12C[C@H](c3ccc(OCCCCCS(=O)(=O)Cc4ccccn4)cc3)[C@@H]3c4ccc(O)cc4CC[C@H]3[C@]13CC[C@@]2(O)CC3 [Compound A]
[1]; 0.1 μg/animal/day s.c.
  % of Action of E2 (bone density femur): 14%
  Bone Density Femur: 296.4 mg Ca/ccm
[1]; 1 μg/animal/day s.c.
  % of Action of E2 (bone density femur): 31%
  Bone Density Femur: 309.6 mg Ca/ccm
[1]; 10 μg/animal/day s.c.
  % of Action of E2 (bone density femur): 60%
  Bone Density Femur: 331.3 mg Ca/ccm
[1]; 100 μg/animal/day s.c.
  % of Action of E2 (bone density femur): 50%
  Bone Density Femur: 324.1 mg Ca/ccm
  Bone Density: 361.8 mg Ca/ccm
[1]; 500 μg/animal/day s.c.
  % of Action of E2 (bone density): 49%
  Bone Density: 336.3 mg Ca/ccm
[1]; 2000 μg/animal/day s.c.
  % of Action of E2 (bone density): 65%
  Bone Density: 348.8 mg Ca/ccm
[1]; above 100 μg/animal/day, proximal tibia
  effect of dose increase on bone action (in words): can no longer be increased by increasing the dose
[1]; dose range between 10 and 100 μg/animal/day s.c.
  protective action in comparison to 17β-estradiol: 50-60%
[1]; ovariectomized rats, 0.1-100 μg/animal/day
  degradation of bone density after ovariectomy (in words): prevented or inhibited
[1]; proximal tibia, s.c.
  dose with which an action of about 80% of 17β-estradiol on trabecular bone is achieved: 100 μg/animal/day
[1]; proximal tibia, vs compound V
  potency relative to comparison compound V, bone-protecting action: 3 factor
Bone / uterus of rats
  dissociation of bone-protecting action from estrogen action on the uterus (in words): most dissociated
